Among the test systems are 786-0; CCRF-CEM; COLO 205; EKVX; HL-60; HOP-62; HOP-92; IGROV-1; KM12; LOX IMVI; MCF7; NCI-H226; NCI-H23; OVCAR-3; OVCAR-4; OVCAR-5; SK-MEL-28; SK-MEL-5; T47D; TK-10.
Holding throughout (assay): growth of human tumour cells (NCI), 48 h

Results on four compounds are retold here after ChEMBL document CHEMBL1201862, “PubChem BioAssay data set” (2004).

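1) Cells in 96-well plates. 2) Compound, 48 h, 5 concentrations. 3) Linear interpolation between surrounding doses. 4) Unreached endpoint = highest concentration. Here, GI50 denotes the concentration required for 50% inhibition of growth.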 The source made the active and inactive calls. Rule as the data show it: active = GI50 up to about 1.1 µM and inactive = higher. A value given as a limit tells only on which side of the number the result lay.

Consider `FC(F)(F)C1(C(F)(F)F)O[Si]2(OC(C(F)(F)F)(C(F)(F)F)c3ccccc32)c2ccccc21`, for which the GI50 was 12.7 µM (inactive) with 786-0; 10.5 µM (inactive) in the assay on CCRF-CEM; 14.8 µM (inactive) in the assay on COLO 205; 15 µM (inactive) with EKVX; 13.6 µM (inactive) in the assay on HL-60; 8.67 µM (inactive) in the assay with HOP-62. For the same compound, the GI50 in the assay on HOP-92 was 3.69 µM (inactive); with IGROV-1 it was 16.3 µM (inactive); in the assay with KM12, 17.1 µM (inactive); with LOX IMVI it was 9.44 µM (inactive); with MCF7, 14.4 µM (inactive); in the assay on NCI-H226 it was 4.53 µM (inactive). Besides, the GI50 in the assay with NCI-H23 was 10.6 µM (inactive); with OVCAR-3 it was 16.5 µM (inactive); in the assay on OVCAR-4 it was 11.4 µM (inactive); in the assay on OVCAR-5, 14.5 µM (inactive); in the assay on SK-MEL-28, 12 µM (inactive); in the assay with SK-MEL-5, 15.5 µM (inactive). The GI50 with T47D was 9.95 µM (inactive); with TK-10, 17.4 µM (inactive).

For the compound `CC(C)(C)OC(=O)NCC(CNC(=O)OC(C)(C)C)C(N)=O`, the GI50 in the assay with 786-0, in the assay on CCRF-CEM, with COLO 205, in the assay with EKVX, in the assay with HL-60 and with HOP-62 was > 100 µM (inactive) throughout. For the same compound, the GI50 with HOP-92, in the assay on IGROV-1, with KM12, in the assay with LOX IMVI, with MCF7 and in the assay with NCI-H226 was > 100 µM (inactive) each time. Moreover, the GI50 with NCI-H23, in the assay with OVCAR-3, in the assay with OVCAR-4, with OVCAR-5, in the assay on SK-MEL-28 and in the assay with SK-MEL-5 was > 100 µM (inactive) in each case. Further, the GI50 with T47D and with TK-10 was > 100 µM (inactive) in each case.

In the case of `CCC(C)C(=O)O[C@H]1C(=O)O[C@@H]2C[C@H]3C(C)=CC(=O)[C@@H](O)[C@]3(C)[C@H]3[C@@H](O)[C@H](O)[C@@]4(C)OC[C@]32[C@@H]14` (stereo not given in full), the GI50 is < 0.0194 µM (active) in the assay on 786-0; 0.0143 µM (active) in the assay on CCRF-CEM; 0.0229 µM (active) in the assay with COLO 205; 0.121 µM (active) with EKVX; 0.014 µM (active) in the assay on HL-60; < 0.0221 µM (active) in the assay with HOP-62. Further, the GI50 was < 0.0237 µM (active) in the assay on HOP-92; < 0.0191 µM (active) with IGROV-1; < 0.0161 µM (active) in the assay with KM12; < 0.0129 µM (active) in the assay with LOX IMVI; < 0.01 µM (active) in the assay on MCF7; < 0.0157 µM (active) with NCI-H226. Moreover, the GI50 with NCI-H23 is < 0.01 µM (active); in the assay with OVCAR-3 it was 0.0169 µM (active); in the assay with OVCAR-4, < 0.01 µM (active); in the assay on OVCAR-5 it was < 0.0244 µM (active); in the assay with SK-MEL-28, < 0.01 µM (active); in the assay on SK-MEL-5, < 0.0169 µM (active). Further, the GI50 in the assay on T47D was < 0.01 µM (active); in the assay with TK-10 it was < 0.0198 µM (active).

On to `CCCCCCCCCCCCCCCCNc1nc(=O)n(C2CC(O)C(COP(=O)(O)OC3CC(n4cc(F)c(=O)[nH]c4=O)OC3CO)O2)cc1F` (stereo not given), for which the GI50 in the assay on 786-0 is 0.416 µM (active); in the assay on CCRF-CEM it was < 0.0122 µM (active); in the assay on COLO 205, 10.9 µM (inactive); with EKVX, 26.4 µM (inactive); in the assay with HL-60, 0.328 µM (active); in the assay with HOP-62, < 0.0296 µM (active). The GI50 in the assay on HOP-92 is 4.38 µM (inactive); in the assay with IGROV-1 it was 1.95 µM (inactive); in the assay with KM12, 20.7 µM (inactive); in the assay with LOX IMVI, 0.0637 µM (active); in the assay on MCF7, < 0.01 µM (active); with NCI-H226 it was 9.51 µM (inactive). Further, the GI50 with NCI-H23 was 0.44 µM (active); with OVCAR-3, 10 µM (inactive); in the assay with OVCAR-4 it was 92.3 µM (inactive); in the assay on OVCAR-5, 29.7 µM (inactive); in the assay with SK-MEL-28, 14.2 µM (inactive); in the assay with SK-MEL-5, 0.571 µM (active). The GI50 in the assay on T47D is 6.68 µM (inactive); with TK-10, 25.7 µM (inactive).
